24 compounds from US20230146675A1, “PYRIMIDO[5,4-d]PYRIMIDINE DERIVATIVES AS ENT INHIBITORS FOR THE TREATMENT OF CANCERS, AND COMBINATION THEREOF WITH ADENOSINE RECEPTOR ANTAGONISTS” (ITEOS BELGIUM SA, priority 2020, published 2023) can be followed below.

The structures appear in SMILES notation.

The test has as its target T1, human ENT1 (Homo sapiens, UniProt Q99808).
T1 sequence (Q99808 1-456): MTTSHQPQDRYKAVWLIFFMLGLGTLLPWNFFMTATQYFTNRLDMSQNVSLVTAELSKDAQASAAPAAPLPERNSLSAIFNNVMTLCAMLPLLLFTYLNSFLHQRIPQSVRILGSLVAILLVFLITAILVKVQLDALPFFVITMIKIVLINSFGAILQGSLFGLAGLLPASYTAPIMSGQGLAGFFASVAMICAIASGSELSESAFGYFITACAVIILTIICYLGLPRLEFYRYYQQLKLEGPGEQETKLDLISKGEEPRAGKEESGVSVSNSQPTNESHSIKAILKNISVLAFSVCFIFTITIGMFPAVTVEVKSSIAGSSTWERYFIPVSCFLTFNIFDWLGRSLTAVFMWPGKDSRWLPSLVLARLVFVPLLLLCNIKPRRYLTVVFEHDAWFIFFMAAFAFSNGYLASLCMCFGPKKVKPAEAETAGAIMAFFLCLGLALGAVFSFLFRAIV
Put plainly: ENT1 binding assay (competition with Sahenta-DY647 on JAR cells). Details: JAR cells expressing ENT1 were bought from ATCC; host or cells: JAR cells. The settings on record: binned IC50. In a few lines:
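JAR cells were incubated with test compounds and the fluorescent ligand Sahenta-DY647 in competition. Plates were washed twice by centrifugation (4 min, 400 rcf, 4 °C). Binding potency was derived from the final fluorescence.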
With `COCCN(CCOC)c1nc(N2CCC(OC)CC2)c2nc(N(CCO)Cc3ccc(OC)c(OC)c3OC)nc(N3CCC(OC)CC3)c2n1` [Compound 185, 2-((6-(bis(2-methoxyethyl)amino)-4,8-bis(4-methoxypiperidin-1-yl)pyrimido[5,4-d]pyrimi<din-2-yl)(2,3,4-trimethoxybenzyl)amino)ethanol], the IC50 (in general, the point on the concentration scale where inhibition reaches its midpoint) is < 100 nM.

On to `COCCN(CCOC)c1nc(N2CCC(OC)CC2)c2nc(N(CCOC)CCOC)nc(NCCCCCC#N)c2n1` [Compound 182, 6-((2,6-bis(bis(2-methoxyethyl)amino)-8-(4-methoxypiperidin-1-yl)pyrimido[5,4-d]pyrimidin-4-yl)amino)hexanenitrile], for which the concentration for half-maximal inhibition (IC50) is 500 to 1000 nM.

Turning to `COCCN(CCOC)c1nc(N2CCN(c3ncn(C)n3)CC2)c2nc(N(CCOC)CCOC)nc(NCc3ccc(F)c(F)c3)c2n1` [Compound 227, N4-(3,4-difluorobenzyl)-N2,N2,N6,N6-tetrakis(2-methoxyethyl)-8-(4-(1-methyl-1H-1,2,4-triazol-3-yl)piperazin-1-yl)pyrimido[5,4-d]pyrimidine-2,4,6-triamine], the IC50 is < 100 nM.

The compound `COCCN(CCOC)c1nc(N2CCN(c3nc(C)ns3)CC2)c2nc(N(CCOC)CCOC)nc(N3CCC(OC)CC3)c2n1` [Compound 123, N2,N2,N6,N6-tetrakis(2-methoxyethyl)-4-(4-methoxypiperidin-1-yl)-8-(4-(3-methyl-1,2,4-thiadiazol-5-yl)piperazin-1-yl)pyrimido[5,4-d]pyrimidine-2,6-diamine] registered a concentration for half-maximal inhibition (IC50) of 100 to 500 nM.

As for `COCCN(CCOC)c1nc(N2CCn3cccc3C2)c2nc(N(CCOC)CCOC)nc(N3CCN(C)C(=O)C3)c2n1` [Compound 258, 4-(2,6-bis(bis(2-methoxyethyl)amino)-8-(3,4-dihydropyrrolo[1,2-a]pyrazin-2(1H)-yl)pyrimido[5,4-d]pyrimidin-4-yl)-1-methylpiperazin-2-one], the 50% inhibitory concentration (IC50) is < 100 nM.

In the case of `COCCN(CCOC)c1nc(N2CCC(OC)CC2)c2nc(N(CCOC)CCOC)nc(OCc3ccc(F)c(OC)c3)c2n1` [Compound 157, 4-((4-fluoro-3-methoxybenzyl)oxy)-N2,N2,N6,N6-tetrakis(2-methoxyethyl)-8-(4-methoxypiperidin-1-yl)pyrimido[5,4-d]pyrimidine-2,6-diamine], the 50% inhibitory concentration (IC50) is < 100 nM.

On to `COCCN(CCOC)c1nc(N2CCN(C)C(=O)C2)c2nc(N(CCOC)CCOC)nc(N3CCCCC3)c2n1` [Compound 319, 4-(2,6-bis(bis(2-methoxyethyl)amino)-8-(piperidin-1-yl)pyrimido[5,4-d]pyrimidin-4-yl)-1-methylpiperazin-2-one], for which the IC50 fell in the range of 100 to 500 nM.

Regarding `COCCN(CCOC)c1nc(N2CCS(=O)(=O)CC2)c2nc(N(CCOC)CCOC)nc(N3CCC(OC)CC3)c2n1` [Compound 77, 4-(2,6-bis(bis(2-methoxyethyl)amino)-8-(4-methoxypiperidin-1-yl)pyrimido[5,4-d]pyrimidin-4-yl)thiomorpholine 1,1-dioxide], the half-maximal inhibitory concentration (IC50) was < 100 nM.

Compound `COCCN(CCOC)c1nc(N2CCC(OC)CC2)c2nc(OCc3ccc(C)nc3)nc(N3CCC(OC)CC3)c2n1` [Compound 263, N,N-bis(2-methoxyethyl)-4,8-bis(4-methoxypiperidin-1-yl)-6-((6-methylpyridin-3-yl)methoxy)pyrimido[5,4-d]pyrimidin-2-amine] showed an IC50 of 100 to 500 nM.

Compound `COCCN(CCOC)c1nc(N2CC(F)(F)C2)c2nc(N(CCOC)CCOC)nc(N3CCC(OC)CC3)c2n1` [Compound 105, 4-(3,3-difluoroazetidin-1-yl)-N2,N2,N6,N6-tetrakis(2-methoxyethyl)-8-(4-methoxypiperidin-1-yl)pyrimido[5,4-d]pyrimidine-2,6-diamine] came in with a half-inhibitory concentration (IC50) of 100 to 500 nM.

As to `CCN(CCN1CCCC1)c1nc(N2CCN(C)C(=O)C2)c2nc(N(CCOC)Cc3cc(OC)c(OC)c(OC)c3)nc(N3CCC(OC)CC3)c2n1` [Compound 300, 4-(2-(ethyl(2-(pyrrolidin-1-yl)ethyl)amino)-6-((2-methoxyethyl)(3,4,5-trimethoxybenzyl)amino)-8-(4-methoxypiperidin-1-yl)pyrimido[5,4-d]pyrimidin-4-yl)-1-methylpiperazin-2-one], the IC50 lay within 100 to 500 nM.

Take `COCCN(CCCS(C)(=O)=O)c1nc(N2CCN(C)C(=O)C2)c2nc(N(CCOC)CCOC)nc(N3CCC(OC)CC3)c2n1` [Compound 289, 4-(6-(bis(2-methoxyethyl)amino)-2-((2-methoxyethyl)(3-(methylsulfonyl)propyl)amino)-8-(4-methoxypiperidin-1-yl)pyrimido[5,4-d]pyrimidin-4-yl)-1-methylpiperazin-2-one]: the 50% inhibitory concentration (IC50) was < 100 nM.

As to `COCCN(CCOC)c1nc(N2CCC(S(C)(=O)=O)CC2)c2nc(N(CCOC)CCOC)nc(N3CCC(OC)CC3)c2n1` [Compound 78, N2,N2,N6,N6-tetrakis(2-methoxyethyl)-4-(4-methoxypiperidin-1-yl)-8-(4-(methylsulfonyl)piperidin-1-yl)pyrimido[5,4-d]pyrimidine-2,6-diamine], the IC50 was 500 to 1000 nM.

As for `COCCN(CCOC)c1nc(N2CCC(OC)CC2)c2nc(N(CCOC)CCOC)nc(OCc3cccc(Cl)c3)c2n1` [Compound 155, 4-((3-chlorobenzyl)oxy)-N2,N2,N6,N6-tetrakis(2-methoxyethyl)-8-(4-methoxypiperidin-1-yl)pyrimido[5,4-d]pyrimidine-2,6-diamine], the IC50 was < 100 nM.

`COCCN(CCOC)c1nc(N2CCN(C)C(=O)C2)c2nc(N3CCn4cncc4C3)nc(N3CCC(OC)CC3)c2n1` [Compound 298, 4-(2-(bis(2-methoxyethyl)amino)-6-(5,6-dihydroimidazo[1,5-a]pyrazin-7(8H)-yl)-8-(4-methoxypiperidin-1-yl)pyrimido[5,4-d]pyrimidin-4-yl)-1-methylpiperazin-2-one] came in with a concentration for half-maximal inhibition (IC50) of 500 to 1000 nM.

`COCCN(CCOC)c1nc(N2CCC(OC)CC2)c2nc(N3CCn4ccnc4C3)nc(N3CCN(C)C(=O)C3)c2n1` [Compound 295, 4-(6-(bis(2-methoxyethyl)amino)-2-(5,6-dihydroimidazo[1,2-a]pyrazin-7(8H)-yl)-8-(4-methoxypiperidin-1-yl)pyrimido[5,4-d]pyrimidin-4-yl)-1-methylpiperazin-2-one] showed an IC50 of 100 to 500 nM.

For the compound `COCCN(CCOC)c1nc(N2CCN(c3ncn(C)n3)CC2)c2nc(N(CCOC)CCOC)nc(NCc3cccc(F)c3)c2n1` [Compound 220, N4-(3-fluorobenzyl)-N2,N2,N6,N6-tetrakis(2-methoxyethyl)-8-(4-(1-methyl-1H-1,2,4-triazol-3-yl)piperazin-1-yl)pyrimido[5,4-d]pyrimidine-2,4,6-triamine], the IC50 was < 100 nM.

For `COCCN(CCOC)c1nc(N2CCC(OC)CC2)c2nc(N(CCOC)CCOC)nc(NCc3ccc(Cl)c(C#N)c3)c2n1` [Compound 150, 5-(((2,6-bis(bis(2-methoxyethyl)amino)-8-(4-methoxypiperidin-1-yl)pyrimido[5,4-d]pyrimidin-4-yl)amino)methyl)-2-chlorobenzonitrile], the IC50 is < 100 nM.

In turn, `COCCN(CCOC)c1nc(N2CCC(OC)CC2)c2nc(N(CCOC)CCOC)nc(NCc3ccnc(N)c3)c2n1` [Compound 147, N4-((2-aminopyridin-4-yl)methyl)-N2,N2,N6,N6-tetrakis(2-methoxyethyl)-8-(4-methoxypiperidin-1-yl)pyrimido[5,4-d]pyrimidine-2,4,6-triamine] gave an IC50 of 500 to 1000 nM.

Regarding `COCCN(CCOC)c1nc(N2CCC(OC)CC2)c2nc(N(CCOC)CCOC)nc(NCCc3cnc[nH]3)c2n1` [Compound 95, N4-(2-(1H-imidazol-5-yl)ethyl)-N2,N2,N6,N6-tetrakis(2-methoxyethyl)-8-(4-methoxypiperidin-1-yl)pyrimido[5,4-d]pyrimidine-2,4,6-triamine], the half-maximal inhibitory concentration (IC50) lay in the range of 500 to 1000 nM.

Take `COCCN(CCOC)c1nc(N2CCC(OC)CC2)c2nc(N(CCOC)CCOC)nc(N(C)CCc3ccccn3)c2n1` [Compound 83, N2,N2,N6,N6-tetrakis(2-methoxyethyl)-8-(4-methoxypiperidin-1-yl)-N4-methyl-N4-(2-(pyridin-2-yl)ethyl)pyrimido[5,4-d]pyrimidine-2,4,6-triamine]: the half-inhibitory concentration (IC50) lay within 500 to 1000 nM.

With `COCCN(CCOC)c1nc(N2CCCC(CO)C2)c2nc(N(CCOC)CCOC)nc(N3CCC(OC)CC3)c2n1` (stereo not drawn) [Compound 115, (1-(2,6-bis(bis(2-methoxyethyl)amino)-8-(4-methoxypiperidin-1-yl)pyrimido[5,4-d]pyrimidin-4-yl)piperidin-3-yl)methanol], the 50% inhibitory concentration (IC50) was 100 to 500 nM.

`COCCN(CCOC)c1nc(N2CCc3c(cnn3C)C2)c2nc(N(CCOC)CCOC)nc(N3CCN(C)C(=O)C3)c2n1` [Compound 255, 4-(2,6-bis(bis(2-methoxyethyl)amino)-8-(1-methyl-1,4,6,7-tetrahydro-5H-pyrazolo[4,3-c]pyridin-5-yl)pyrimido[5,4-d]pyrimidin-4-yl)-1-methylpiperazin-2-one]: the IC50 is < 100 nM.

Regarding `COCCN(CCOC)c1nc(N2CCC(OC)CC2)c2nc(N(CCOC)CCOC)nc(NCc3ccccc3)c2n1` [Compound 49, N4-benzyl-N2,N2,N6,N6-tetrakis(2-methoxyethyl)-8-(4-methoxypiperidin-1-yl)pyrimido[5,4-d]pyrimidine-2,4,6-triamine], the IC50 was < 100 nM.
